Data as given in patent US20090181420A1, “Inhibiting Smad signaling promotes neuron regeneration” (Children's Medical Center Corporation, priority 2006, published 2009).

Tests used:
phospho-Smad2 = experiment: Phospho-Smad2 in adult DRG after intraganglionic injection; type: in vivo, rat; settings: 2 μl of 5-10 mM injected into adult DRG (L4 and L5); pilot experiments
Smad2/3 signaling [1] = experiment: Count of BDT-labeled CST axons caudal to spinal cord lesion; type: in vivo, Sprague Dawley rats; settings: rats, seven weeks and 3 d after lesioning; 1-19 mm caudal to lesion; vs lesioned control rats
Excerpt: Rats are randomly assigned to control or experimental groups. Sham control rats undergo surgical procedure without lesioning, and with or without placement of an intrathecal catheter. Lesioned control rats receive no treatment, tail injection vehicle only treatment, intrathecal catheter only treatment, intrathecal catheter with vehicle only treatment, or intrathecal catheter and mismatch siRNA treatment. After anesthesia with isoflurane, the rats are placed on an operating board in such a way as to bend the cervical spinal cord for maximum exposure. A laminectomy is performed exposing the dorsum of the spinal cord between C2 and C4. The dorsal columns are identified bilaterally, and, in all rats except for those in the sham group, a suture needle is passed through the spinal cord, isolating the dorsal funiculus. The suture thread is gently lifted, and a pair of iridectomy scissors is used to bilaterally transect the dorsal funiculus, thereby transecting the dorsal corticospinal tract (CST). […]
Seven weeks after injury, rats are prepared for injection of biotin dextran tetramethylrhodamine (BDT; Molecular Probes). […] After anesthesia with isoflurane (5%), rats are placed in a stereotaxic instrument, and a total of six stereotaxically determined holes (0.9 mm diameter) are drilled in the skull over the primary motor cortices associated with the forelimbs. […]

[2] = tested on: adult DRG neurons (L4 and L5); experiment: Axonal growth ability of injected adult DRG neurons cultured in vitro for 12 hrs; type: in vivo, rat; settings: injected into adult DRG; 3 or 7 days post-injection, cultured 12 hrs; vs saline
Method: (§1) Average axon length of the longest neurite from every individual neuron was measured and quantified as described before (Koprivica et al., 2005; Wang et al., 2002a; Wang et al., 2002b). Branching frequency was measured by dividing the number of branches from the longest neurite by the length of the neurite, as previously described (Smith and Skene, 1997). All measurements were made from at least 150 neurons per condition, from duplicate wells and from three independent experiments.
We next examined whether inhibiting this signaling pathway could enhance the intrinsic growth state of adult DRG neurons by pharmacological approaches. We injected SB505124 or the same volume of saline into the adult DRG (L4 and L5). 3 or 7 days post-injection, the axonal growth ability of injected DRG neurons were assayed by culturing DRG neurons in vitro for 12 hrs.

Smad2/3 signaling [3] = experiment: Directed forepaw reaching (DFR) task after dorsal corticospinal tract transection; type: in vivo, Sprague Dawley rats; settings: rats, sixth week after surgery; SB-505124 30 mg/kg tail vein or siRNA 10 μl intrathecal, days 1-7; vs lesion and vehicle groups
Excerpt: Adult Sprague Dawley rats (300-400 gm) are trained and tested in a directed forepaw reaching (DFR) apparatus which measures grasping ability. The apparatus, which is described in detail by Nash et al., supra, is a box that consists of two compartments: a main compartment for housing the rats and a minor compartment for the food, separated by a Plexiglas divider. The minor compartment is subdivided into slots of equal size, each holding a pellet of food. Between the slots and the Plexiglas there is a gap. The apparatus is configured such that in order to retrieve a food pellet from a slot, a rat must extend a forelimb through a hole in the Plexiglas divider, and grasp the pellet and lift it over the gap and out of the slot. If the rat merely rakes the food in the slot towards the hole in the Plexiglas, the food will drop from the slot into the gap and fall to the floor of the minor compartment. The floor of the minor compartment can be configured to allow a rat to retrieve food that drops or it can be lowered to prevent the rat from reaching dropped food. Prior to inducing spinal injury, the rats are food restricted, receiving ˜3 gm food/100 gm body weight per day, before and throughout training and testing. Weight is monitored to ensure that rats are reduced to no less than 80% of their original body weight at any time. […]

[4] = tested on: dissociated adult rat DRG neurons; experiment: Axonal growth of adult rat DRG neurons overexpressing Smad7; type: cell-based; settings: Smad7 overexpression vs control GFP
Method: (§2) For overexpression of Smad7 in DRGs, adult rat DRG neurons were co-transfected by electroporation with 2 μg pEGFP (Invitrogen) and 5 μg of an expression construct for FLAG-tagged Smad7 (Nakao et al., 1997) or control plasmid using the Rat Neuron Nucleofector Kit (Amaxa) following manufacturer's protocol. After brief purification, the neurons were plated at a density of 200-500 cells/mm2. For overexpression of Smad7 in cerebellar granule neurons (CGN), CGNs from P6 Sprague-Dawley rat pups were dissected, plated onto poly-D-lysine (20 μg/ml), and cultured in Basal Medium Eagle (Gibco) supplemented with 10% calf serum, 25 mM KCl, 2 mM L-glutamine, penicillin and streptomycin, at a density of 2.5×10^3 cells/mm2. CGNs were co-transfected with pEGFP and Smad7 or control plasmid at a 1 to 3 ratio using a modified calcium phosphate transfection method as described before (Konishi et al., 2004). […]
as §1, with “All measurements were made from at least 150 neurons per condition, from duplicate wells and from three independent experiments.” left out

[5] = tested on: cerebellar granule neurons (CGNs) from postnatal rats; experiment: Axonal growth of cerebellar granule neurons overexpressing Smad7; type: cell-based, rat; settings: Smad7 expression, effect became stronger with time
Method: as §2
as §1, with “All measurements were made from at least 150 neurons per condition, from duplicate wells and from three independent experiments.” left out

adult DRG neurons = experiment: Effect of activin A on axonal elongation of adult DRG neurons (prior experiments); type: cell-based
embryonic DRG neurons = experiment: Effect of activin A on axonal growth ability of embryonic DRG neurons (prior experiments); type: cell-based

## Cc1cccc(-c2[nH]c(C(C)(C)C)nc2-c2ccc3c(c2)OCO3)n1.Cl [SB-505124, 2-(5-benzo[1,3]dioxol-5-yl-2-tert-butyl-3H-imidazol-4-yl)-6-methylpyridinehydrochloride]
phospho-Smad2
  phospho-Smad2 in the injected DRGs: significant reduction of phospho-Smad2
Smad2/3 signaling [1]
  number of BDT-labeled axons caudal to the lesion: Significantly more labeled axons at each distance
[2]
  axonal elongation of DRG neurons: significantly increased axonal elongation
  branching frequency of DRG neurons: reduced branching frequency
Smad2/3 signaling [3]
  DFR task performance (functional recovery after spinal injury): Significantly better performance

B1: Smad7: FLAG-tagged Smad7 overexpressed from an expression construct; competes with Smad2/3 for binding to activated ALK (protein, UniProt O15105 1-426, looked up)
Mothers against …: MFRTKRSALVRRLWRSRAPGGEDEEEGAGGGGGGGELRGEGATDSRAHGAGGGGPGRAGCCLGKAVRGAKGHHHPHPPAAGAGAAGGAEADLKALTHSVLKKLKERQLELLLQAVESRGGTRTACLLLPGRLDCRLGPGAPAGAQPAQPPSSYSLPLLLCKVFRWPDLRHSSEVKRLCCCESYGKINPELVCCNPHHLSRLCELESPPPPYSRYPMDFLKPTADCPDAVPSSAETGGTNYLAPGGLSDSQLLLEPGDRSHWCVVAYWEEKTRVGRLYCVQEPSLDIFYDLPQGNGFCLGQLNSDNKSQLVQKVRSKIGCGIQLTREVDGVWVYNRSSYPIFIKSATLDNPDSRTLLVHKVFPGFSIKAFDYEKAYSLQRPNDHEFMQQPWTGFTVQISFVKGWGQCYTRQFISSCPCWLEVIFNSR
modifications: FLAG tag
[4]
  rate of axonal growth: significantly enhanced the rate of axonal growth
[5]
  axonal growth rate: dramatically increase axonal growth rate

B2: activin A: TGFβ family member produced in skin (protein, UniProt P08476 311-426, looked up)
Inhibin beta A chain: GLECDGKVNICCKKQFFVSFKDIGWNDWIIAPSGYHANYCEGECPSHIAGTSGSSLSFHSTVINHYRMRGHSPFANLKSCCVPTKLRPMSMLYYDDGQNIIKKDIQNMIVEECGCS
Adult DRG neurons
  axonal elongation ability: reduces axonal elongation ability
Embryonic DRG neurons
  axonal growth ability: triggers a decline in axonal growth ability
